Measured values taken from ChEMBL document CHEMBL3886401, “Disubstituted benzothienyl-pyrrolotriazines and uses thereof” (2015).

Tests used:
[1] = biological target: Fibroblast growth factor receptor 1 (Homo sapiens, UniProt P11362); test: High ATP Kinase Assay: For the assay, 50 nl of each stock solution of the test compound in DMSO was pipetted into a black, low-volume 384-well microtiter plate (Greiner Bio-One, Frickenhausen, Germany) 2 Î¼l of a solution of the above FGFR-1 fusion protein in aqueous assay buffer [8 mM MOPS pH 7.0, 10 mM magnesium acetate, 1.0 mM dithiothreitol, 0.05% (w/v) bovine serum albumin (BSA), 0.07% (v/v) …
[2] = biological target: Fibroblast growth factor receptor 3 (Homo sapiens, UniProt P22607); test: Kinase Assay: For the assay, 50 nl of each stock solution of the test compound in DMSO was pipetted into a black, low-volume 384-well microtiter plate (Greiner Bio-One, Frickenhausen, Germany) 2 ul of a solution of the above FGFR-3 fusion protein in aqueous assay buffer [8 mM MOPS pH 7.0, 10 mM magnesium acetate, 1.0 mM dithiothreitol, 0.05% (w/v) bovine serum albumin (BSA), 0.07% (v/v) Tween-20 …
Sequence of Fibroblast growth factor receptor 3 (P22607 whole entry, the tested form may be a part): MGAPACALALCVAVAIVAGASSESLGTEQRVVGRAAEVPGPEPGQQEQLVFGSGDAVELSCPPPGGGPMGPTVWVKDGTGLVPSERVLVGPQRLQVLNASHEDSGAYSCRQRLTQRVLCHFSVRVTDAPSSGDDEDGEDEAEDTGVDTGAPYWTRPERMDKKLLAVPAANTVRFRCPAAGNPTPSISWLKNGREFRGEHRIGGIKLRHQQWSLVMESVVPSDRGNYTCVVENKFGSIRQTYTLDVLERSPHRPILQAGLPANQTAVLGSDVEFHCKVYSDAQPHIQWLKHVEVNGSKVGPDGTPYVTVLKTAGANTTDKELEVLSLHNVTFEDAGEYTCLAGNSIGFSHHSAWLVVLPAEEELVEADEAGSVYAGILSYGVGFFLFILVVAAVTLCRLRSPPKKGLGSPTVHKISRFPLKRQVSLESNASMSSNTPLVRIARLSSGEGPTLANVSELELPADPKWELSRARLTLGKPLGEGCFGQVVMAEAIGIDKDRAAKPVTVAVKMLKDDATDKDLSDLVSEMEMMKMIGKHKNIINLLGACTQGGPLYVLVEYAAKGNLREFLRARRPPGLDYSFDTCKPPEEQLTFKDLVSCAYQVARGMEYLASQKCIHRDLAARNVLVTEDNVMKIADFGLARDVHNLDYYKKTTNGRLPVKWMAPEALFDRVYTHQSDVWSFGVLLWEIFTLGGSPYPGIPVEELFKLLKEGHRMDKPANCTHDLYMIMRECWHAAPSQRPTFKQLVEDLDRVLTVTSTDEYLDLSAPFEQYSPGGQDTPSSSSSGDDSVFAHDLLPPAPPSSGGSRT

Sequence of Fibroblast growth factor receptor 1 (P11362 whole entry, the tested form may be a part): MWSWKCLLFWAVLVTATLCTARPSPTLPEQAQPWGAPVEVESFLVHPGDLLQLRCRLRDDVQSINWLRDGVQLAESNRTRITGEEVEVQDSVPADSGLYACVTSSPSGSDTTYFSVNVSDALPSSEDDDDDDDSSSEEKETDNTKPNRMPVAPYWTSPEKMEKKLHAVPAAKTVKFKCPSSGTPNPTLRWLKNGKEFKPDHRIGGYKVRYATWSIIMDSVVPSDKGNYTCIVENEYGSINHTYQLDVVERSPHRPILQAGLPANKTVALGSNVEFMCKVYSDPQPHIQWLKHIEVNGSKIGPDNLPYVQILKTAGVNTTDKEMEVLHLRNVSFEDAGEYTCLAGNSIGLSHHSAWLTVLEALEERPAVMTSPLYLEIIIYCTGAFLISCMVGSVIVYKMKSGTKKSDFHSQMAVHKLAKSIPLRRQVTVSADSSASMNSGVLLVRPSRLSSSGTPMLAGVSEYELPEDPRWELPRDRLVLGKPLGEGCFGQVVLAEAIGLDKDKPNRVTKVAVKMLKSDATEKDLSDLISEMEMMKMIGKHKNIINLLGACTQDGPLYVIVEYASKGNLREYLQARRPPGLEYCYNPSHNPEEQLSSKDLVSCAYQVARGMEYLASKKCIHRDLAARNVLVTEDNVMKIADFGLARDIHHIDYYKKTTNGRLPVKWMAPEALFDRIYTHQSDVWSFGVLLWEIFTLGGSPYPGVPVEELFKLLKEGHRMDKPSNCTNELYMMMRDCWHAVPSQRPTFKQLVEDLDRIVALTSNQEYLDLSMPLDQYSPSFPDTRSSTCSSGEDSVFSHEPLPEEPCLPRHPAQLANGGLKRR

Row | SMILES | IC50 [1] [nM] | IC50 [2] [nM]
1 | COCc1c(-c2cc3cc(C)cc(OC)c3s2)c2c(N)ncnn2c1C#N | 55.3 | 58.1
2 | CCOCc1c(CN2CCNC(=O)C2)c(-c2cc3cc(C)cc(OC)c3s2)c2c(N)ncnn12 | 8 | 
3 | COCc1c(CN2CCNC(=O)C2)c(-c2cc3cc(C)cc(OC)c3s2)c2c(N)ncnn12 | 3.9 | 
4 | CCOCc1c(-c2cc3cc(C)cc(OC)c3s2)c2c(N)ncnn2c1C#N | 39.1 | 
5 | COc1cc(C)cc2cc(-c3c(CNC(C)=O)c(CNC(C)=O)n4ncnc(N)c34)sc12 | 1.4 | 0.7
